Measurements taken from patent US20050222043A1, “Use of proteasome inhibitor in the treatment of fibrotic diseases” (priority 2002, published 2005).
Entries after “also recorded” stand apart in the source; their conditions may differ. Peptide text beside a SMILES is read from it. * marks the point of attachment. Cbz = O=C(OCc1ccccc1)*

Assays:
[1] = system: spontaneously hypertensive rats (SH-rats); assay: Histological determination of cardiac fibrosis (quantitative morphometry of siriusred-stained left-ventricular sections) in SH-rats; format: in vivo, rat; details: MG132-treated, FIG. 1B
Description: For the pathohistological evaluation, the rat hearts were embedded into paraffin, cut into sections having a thickness of 3 μm, subjected to a haematoxylin-eosin and siriusred staining and analysed as being described in Hocher, B. et al., (1999), Hypertension, 3, 816-822. The degree of heart fibrosis was evaluated by means of quantitative morphometry of the siriusred-stained sections with an image analysis system (Quantimed 500, Image 1.61 program). In this analysis, the ratio of the red-stained tissue (connective tissue) and the total tissue of the section was determined.
Male SH-rats of the same age were obtained from the Jackson Laboratory, Maine, USA. […] The blood pressure was measured weekly by means of the standard tail-cuff method. The blood values and the standard laboratory markers of the renal and hepatic functions were determined 6 weeks after the treatment and at the end of the study by means of standard methods. At the end of the study, the animals were anaesthetised by means of an intraperitoneal injection of a 20% urethane solution (0,9 g per kg body weight) and the left-ventricular pressure parameters were determined as being described by Saragoca, M. et al. (1981) Hypertension, 3, 380-385. […]
The data was determined in the form of mean values ±S.E.M., if not otherwise indicated. […]

[2] = system: spontaneously hypertensive rats (SH-rats); assay: Left-ventricular pressure parameters in SH-rats; format: in vivo, rat; details: 1 mg/kg daily i.p., 12 weeks
Description: (§1) Male SH-rats of the same age were obtained from the Jackson Laboratory, Maine, USA. The animals were maintained according to the international guidelines for the keeping und use of laboratory animals. 6-week-old rats were treated for 12 weeks with MG132 (1 mg per kg body weight), 0,1% DMSO as solvent control or with physiological saline (n=10 per group, daily intraperitoneal injection). The animals were fed with a high salt diet (drinking water with 2% sodium chloride). The blood pressure was measured weekly by means of the standard tail-cuff method. The blood values and the standard laboratory markers of the renal and hepatic functions were determined 6 weeks after the treatment and at the end of the study by means of standard methods. At the end of the study, the animals were anaesthetised by means of an intraperitoneal injection of a 20% urethane solution (0,9 g per kg body weight) and the left-ventricular pressure parameters were determined as being described by Saragoca, M. et al. (1981) Hypertension, 3, 380-385. The organs were withdrawn, weighed and either shock-frozen in liquid nitrogen or embedded in paraffin for the histological analysis. Since no difference was observed between the DMSO-treated and the salt-treated SH-rats in respect to the above mentioned parameters, the DMSO-treated animals served as a control for the MG132-treatment.
(§2) The data was determined in the form of mean values ±S.E.M., if not otherwise indicated. The significance of the differences in the left-ventricular pressure parameters and in the quantification of the heart fibrosis was determined according to Student's T-test. For the cell proliferation test, the significance was determined by comparing the regression coefficients of MG132 in relation to the control group. An error probability of p<0,05 was considered as being significant. The software SPSS 9.0 was used for all statistical calculations.

[3] = system: spontaneously hypertensive rats (SH-rats); assay: Animal study: tolerability, blood pressure, weights, blood values in SH-rats; format: in vivo, rat
Description: as §1

cardiac fibroblasts = assay: Proliferation test (trypanblue exclusion cell counting); format: cell-based, rat; details: 0,1 and 1 μM, 10% serum, counted daily for 7 days
Description: Cardiac fibroblasts were prepared from neonatal Wistar rats by plating the non-myocyte fraction of neonatal hearts. The hearts were removed from neonatal rats being 2-3 days old. Ventricular tissue was treated over night at 4° C. with […] trypsin in Hanks-Balanced Salt Saline (HBSS) (Ca^2+- and Mg^2+-free, Invitrogen™, Karlsruhe, Germany) and with collagenase (0,5 mg per ml) in Leibowitz medium (L-15, Invitrogen™, Karlsruhe, Germany) for 45 minutes at 37° C. After washing, the cells were pre-plated at 37° C. for one hour. […]
MG132, ALLM and MG262 were purchased at Calbiochem® (San Diego, Calif., USA) and provided as 10 mM DMSO stock solutions. […] The proliferation was determined by counting the living cells in triplicate in daily intervals by means of the trypanblue exclusion test. […]
as §2, with “An error probability of p<0,05 was considered as being significant. The software SPSS 9.0 was used for all statistical calculations.” left out

collagen Iα1 = assay: Real-time PCR of collagen Iα1 mRNA in cardiac fibroblasts; format: cell-based, rat; details: primary cardiac fibroblasts
Description: (§3) Cardiac fibroblasts were prepared from neonatal Wistar rats by plating the non-myocyte fraction of neonatal hearts. The hearts were removed from neonatal rats being 2-3 days old. Ventricular tissue was treated over night at 4° C. with […] trypsin in Hanks-Balanced Salt Saline (HBSS) (Ca^2+- and Mg^2+-free, Invitrogen™, Karlsruhe, Germany) and with collagenase (0,5 mg per ml) in Leibowitz medium (L-15, Invitrogen™, Karlsruhe, Germany) for 45 minutes at 37° C. After washing, the cells were pre-plated at 37° C. for one hour. The adherent cells predominantly were cardiac fibroblasts, which were then further cultivated under standard conditions in standard M199-medium with 10% new-born calf serum, L-glutamine and penicillin-streptomycin (Invitrogen™, Karlsruhe, Germany). In the experiments, we used sub-cultivated fibroblasts of the passages 3-7.
(§4) Total RNA was extracted by means of Trizol reagent (Invitrogen™, Karlsruhe, Germany). In the following, the RNA was subjected to reverse transcription (AMF Reverse Transkriptase, Roche Biochemicals, Mannheim, Germany) and treated with DNase (Ambion, Huntington, UK). […] The relative quantification was performed by means to the comparative CT-method as being described by the manufacturer.

collagen Iα2 = assay: Real-time PCR of collagen Iα2 mRNA in cardiac fibroblasts; format: cell-based, rat; details: primary cardiac fibroblasts
Description: as §3, §4

collagen IIIα1 = assay: Real-time PCR of collagen IIIα1 mRNA in cardiac fibroblasts; format: cell-based, rat; details: primary cardiac fibroblasts
Description: as §3, §4

MMP2 and MMP9 = assay: Real-time PCR of MMP expression in cardiac fibroblasts; format: cell-based, rat; details: FIG. 4A
Description: as §3
as §4, with “manufacturer. […]” for “manufacturer.”

NFκB = assay: Band shift analysis for active NFκB in nuclear extracts of cardiac fibroblasts; format: cell-based, rat; details: 0,5 μM with IL-1β; not less than 6 hours
Description: This was additionally confirmed in band shift analyses with oligonucleotides comprising a NFκB-DNA binding site. For this test, nuclear extracts from cardiac fibroblasts were prepared, which were treated with 0,5 μM MG132 or, respectively, with DMSO (solvent control) in a time course in the presence or absence of IL-1β.

[4] = system: collagens Iα1, Iα2 and IIIα1; assay: Real-time PCR of collagen expression (stated jointly) in cardiac fibroblasts; format: cell-based, rat; details: primary cardiac fibroblasts, FIG. 2B
Description: as §3
as §4, with “manufacturer. […]” for “manufacturer.”

CC(C)C[C@@H](C=O)NC(=O)[C@H](CC(C)C)NC(=O)[C@H](CC(C)C)NC(=O)OCc1ccccc1 [MG132, Z-Leu-Leu-Leu-al] (Cbz-Leu-Leu-Leu-aldehyde)
cardiac fibrosis in heart section (in words) [1]: significantly reduced cardiac fibrosis | LVEDP compared with control (in words) ([2]; 1 mg/kg): remarkably reduced pressure level; also recorded: significantly lower | dp/dtmax compared with control (in words) ([2]; 1 mg/kg): significantly higher; also recorded: more than twice higher | left-ventricular end-diastolic (filling) pressure LVEDP ([2]; mean ± S.E.M.): 5±3 mm Hg | maximal pressure drop rate dp/dtmin ([2]; mean ± S.E.M.): −5046±726 mm Hg/s | tolerability of long-term treatment ([3]; SH-rats, 1 mg per kg daily, 12 weeks): very well tolerated; also recorded: in general well tolerated | Body Weight ([3]; SH-rats, 1 mg/kg MG132): 280 ± 15.3 g | differential blood picture and laboratory markers of kidney or liver side effects ([3]; blood samples after 6 weeks and at end of study): neither changes in the differential blood picture nor a change in the laboratory markers | inhibition of proliferation / growth of cardiac fibroblasts (cardiac fibroblasts): dose-dependent inhibition of proliferation | expression of collagen Iα1 (collagen Iα1): unaffected | expression of collagen Iα2 (in words) (collagen Iα2; FIG. 2B): dose-dependent and dramatic reduction | down-regulation / inhibition of collagen Iα2 RNA expression (collagen Iα2; dose-dependent): up to 73% | expression of collagen IIIα1 (in words) (collagen IIIα1; FIG. 2B): dose-dependent and dramatic reduction | down-regulation / inhibition of collagen IIIα1 RNA expression (collagen IIIα1; dose-dependent): up to 91% | expression of MMP2 and MMP9 under co-stimulation with IL-1β (MMP2 and MMP9): surprisingly strong reduction | effect on IL-1β-induced NFκB activation (band shift) (NFκB): small inhibitory effect

CC(C)C[C@H](NC(=O)[C@H](CC(C)C)NC(=O)[C@H](CC(C)C)NC(=O)OCc1ccccc1)B(O)O [MG262]
effect on collagen expression [4]: inhibited the collagen expression in a comparably effective manner

CSCC[C@@H](C=O)NC(=O)[C@H](CC(C)C)NC(=O)[C@H](CC(C)C)NC(C)=O [ALLM] (Ac-Leu-Leu-Met-aldehyde)
effect on collagen expression [4]: no effects
